# In patent US4011327A (priority 1975, dated 1977):
# Several values for one entry are separate records, joined by “and”; a condition that tells them apart may be missing. Identical values can stand only once. Like-named read-outs stand apart in the source and are kept apart here.
# Columns and labels:
# Format in all cases: cell-based
# Histoplasma capsulatum = assay: microbe, parasite or virus in culture; conditions: for weekly increments of the diameter of colony: duplicates a, b; for MIC: Histoplasma capsulatum
# Blastomyces dermatitidis = assay: Antifungal activity in vitro, mycelial growth on Sabouraud dextrose agar; conditions: for weekly increments of the diameter of colony: duplicates a, b; for MIC: Blastomyces dermatitidis
# Trichophyton rubrum = assay: as above; conditions: for weekly increments of the diameter of colony: duplicates a, b; for MIC: Trichophyton rubrum
# Sporotrichum schenckii = assay: as above; conditions: for weekly increments of the diameter of colony: duplicates a, b; for MIC: Sporothrix schenckii
# [1] = 336 h, read-out: minimum in vitro inhibitory concentration
# [2] = 336 h, two week period, read-out: minimum in vitro inhibitory concentration
smiles,measurement,setting,value
"CSC1(C)CCC2C(C)CCC(c3ccoc3)N2C1O (single isomer, unassigned) [Example 7-MTDOL, 7β-methylthiodeoxynupharidin-6α-ol]",weekly increments of the diameter of colony,"Histoplasma capsulatum; 10 mcg/ml, week 2, No. 1106, 25° C",15 mm and 10 mm
same,weekly increments of the diameter of colony,"Histoplasma capsulatum; 10 mcg/ml, week 3, No. 1106, 25° C",25 mm and 29 mm
same,weekly increments of the diameter of colony,"Histoplasma capsulatum; 20 mcg/ml, week 1, No. 1106, 25° C",0 mm
same,weekly increments of the diameter of colony,"Histoplasma capsulatum; 20 mcg/ml, week 3, No. 1106, 25° C",10 mm and 5 mm
same,weekly increments of the diameter of colony,"Histoplasma capsulatum; 40 mcg/ml, week 1, No. 1106, 25° C",0 mm
same,weekly increments of the diameter of colony,"Histoplasma capsulatum; 60 mcg/ml, week 1, No. 1106, 25° C",0 mm
same,weekly increments of the diameter of colony,"Histoplasma capsulatum; 60 mcg/ml, week 2, No. 1106, 25° C",0 mm
same,weekly increments of the diameter of colony,"Histoplasma capsulatum; 60 mcg/ml, week 3, No. 1106, 25° C",0 mm
same,weekly increments of the diameter of colony,"Histoplasma capsulatum; 80 mcg/ml, week 1, No. 1106, 25° C",0 mm
same,weekly increments of the diameter of colony,"Histoplasma capsulatum; 80 mcg/ml, week 2, No. 1106, 25° C",0 mm
same,weekly increments of the diameter of colony,"Histoplasma capsulatum; 80 mcg/ml, week 3, No. 1106, 25° C",0 mm
same,weekly increments of the diameter of colony,"Histoplasma capsulatum; 100 mcg/ml, week 1, No. 1106, 25° C",0 mm
same,weekly increments of the diameter of colony,"Histoplasma capsulatum; 100 mcg/ml, week 2, No. 1106, 25° C",0 mm
same,weekly increments of the diameter of colony,"Histoplasma capsulatum; 100 mcg/ml, week 3, No. 1106, 25° C",0 mm
same,MIC,Histoplasma capsulatum; [1],40 mg/L
same,MIC,"Histoplasma capsulatum; 504 h, read-out: concentration inhibiting mycelial growth",40 mg/L
same,weekly increments of the diameter of colony,"Blastomyces dermatitidis; 10 mcg/ml, week 1, No. 1107, 25° C",14 mm
same,weekly increments of the diameter of colony,"Blastomyces dermatitidis; 10 mcg/ml, week 2, No. 1107, 25° C",20 mm and 21 mm
same,weekly increments of the diameter of colony,"Blastomyces dermatitidis; 10 mcg/ml, week 3, No. 1107, 25° C",35 mm and 32 mm
same,weekly increments of the diameter of colony,"Blastomyces dermatitidis; 20 mcg/ml, week 1, No. 1107, 25° C",10 mm
same,weekly increments of the diameter of colony,"Blastomyces dermatitidis; 20 mcg/ml, week 2, No. 1107, 25° C",16 mm and 15 mm
same,weekly increments of the diameter of colony,"Blastomyces dermatitidis; 20 mcg/ml, week 3, No. 1107, 25° C",17 mm and 18 mm
same,weekly increments of the diameter of colony,"Blastomyces dermatitidis; 40 mcg/ml, week 1, No. 1107, 25° C",7 mm and 6 mm
same,weekly increments of the diameter of colony,"Blastomyces dermatitidis; 40 mcg/ml, week 2, No. 1107, 25° C",15 mm
same,weekly increments of the diameter of colony,"Blastomyces dermatitidis; 40 mcg/ml, week 3, No. 1107, 25° C",20 mm and 28 mm
same,weekly increments of the diameter of colony,"Blastomyces dermatitidis; 60 mcg/ml, week 1, No. 1107, 25° C",0 mm
same,weekly increments of the diameter of colony,"Blastomyces dermatitidis; 60 mcg/ml, week 2, No. 1107, 25° C",5 mm
same,weekly increments of the diameter of colony,"Blastomyces dermatitidis; 60 mcg/ml, week 3, No. 1107, 25° C",5 mm and 7 mm
same,weekly increments of the diameter of colony,"Blastomyces dermatitidis; 80 mcg/ml, week 1, No. 1107, 25° C",0 mm
same,weekly increments of the diameter of colony,"Blastomyces dermatitidis; 80 mcg/ml, week 2, No. 1107, 25° C",0 mm
same,weekly increments of the diameter of colony,"Blastomyces dermatitidis; 100 mcg/ml, week 1, No. 1107, 25° C",0 mm
same,MIC,Blastomyces dermatitidis; [2],80 mg/L
same,MIC,"Blastomyces dermatitidis; 504 h, up to the end of 3 weeks, Sabouraud dextrose agar, read-out: concentration inhibiting mycelial growth",80 mg/L
same,weekly increments of the diameter of colony,"Trichophyton rubrum; 10 mcg/ml, week 1, No. 1112, 25° C",10 mm and 11 mm
same,weekly increments of the diameter of colony,"Trichophyton rubrum; 10 mcg/ml, week 2, No. 1112, 25° C, colony overgrown by adjacent culture",20 mm
same,weekly increments of the diameter of colony,"Trichophyton rubrum; 10 mcg/ml, week 3, No. 1112, 25° C, colony overgrown by adjacent culture",22 mm and 25 mm
same,weekly increments of the diameter of colony,"Trichophyton rubrum; 20 mcg/ml, week 1, No. 1112, 25° C",8 mm and 7 mm
same,weekly increments of the diameter of colony,"Trichophyton rubrum; 20 mcg/ml, week 2, No. 1112, 25° C",21 mm and 20 mm
same,weekly increments of the diameter of colony,"Trichophyton rubrum; 20 mcg/ml, week 3, No. 1112, 25° C, b: colony overgrown by adjacent culture",30 mm and 22 mm
same,weekly increments of the diameter of colony,"Trichophyton rubrum; 40 mcg/ml, week 1, No. 1112, 25° C",8 mm and 6 mm
same,weekly increments of the diameter of colony,"Trichophyton rubrum; 40 mcg/ml, week 2, No. 1112, 25° C",20 mm and 18 mm
same,weekly increments of the diameter of colony,"Trichophyton rubrum; 40 mcg/ml, week 3, No. 1112, 25° C",30 mm and 26 mm
same,weekly increments of the diameter of colony,"Trichophyton rubrum; 60 mcg/ml, week 2, No. 1112, 25° C",8 mm and 6 mm
same,weekly increments of the diameter of colony,"Trichophyton rubrum; 60 mcg/ml, week 3, No. 1112, 25° C",14 mm and 15 mm
same,weekly increments of the diameter of colony,"Trichophyton rubrum; 80 mcg/ml, week 1, No. 1112, 25° C",0 mm
same,weekly increments of the diameter of colony,"Trichophyton rubrum; 80 mcg/ml, week 2, No. 1112, 25° C",5 mm
same,weekly increments of the diameter of colony,"Trichophyton rubrum; 80 mcg/ml, week 3, No. 1112, 25° C",9 mm and 6 mm
same,weekly increments of the diameter of colony,"Trichophyton rubrum; 100 mcg/ml, week 3, No. 1112, 25° C",6 mm and 7 mm
same,MIC,Trichophyton rubrum; [1],100 mg/L
same,MIC,"Trichophyton rubrum; 504 h, read-out: concentration inhibiting growth",100 mg/L
same,weekly increments of the diameter of colony,"Sporotrichum schenckii; 10 mcg/ml, week 1, No. 1109, 25° C",11 mm and 10 mm
same,weekly increments of the diameter of colony,"Sporotrichum schenckii; 10 mcg/ml, week 2, No. 1109, 25° C",25 mm and 24 mm
same,weekly increments of the diameter of colony,"Sporotrichum schenckii; 20 mcg/ml, week 2, No. 1109, 25° C",20 mm
same,weekly increments of the diameter of colony,"Sporotrichum schenckii; 20 mcg/ml, week 3, No. 1109, 25° C",31 mm and 29 mm
same,weekly increments of the diameter of colony,"Sporotrichum schenckii; 40 mcg/ml, week 2, No. 1109, 25° C, a: colony overgrown by adjacent culture",18 mm and 15 mm
same,weekly increments of the diameter of colony,"Sporotrichum schenckii; 40 mcg/ml, week 3, No. 1109, 25° C, a: colony overgrown by adjacent culture",18 mm and 25 mm
same,weekly increments of the diameter of colony,"Sporotrichum schenckii; 60 mcg/ml, week 1, No. 1109, 25° C",0 mm
same,weekly increments of the diameter of colony,"Sporotrichum schenckii; 60 mcg/ml, week 2, No. 1109, 25° C",10 mm
same,weekly increments of the diameter of colony,"Sporotrichum schenckii; 60 mcg/ml, week 3, No. 1109, 25° C",20 mm
same,weekly increments of the diameter of colony,"Sporotrichum schenckii; 80 mcg/ml, week 1, No. 1109, 25° C",0 mm
same,weekly increments of the diameter of colony,"Sporotrichum schenckii; 80 mcg/ml, week 2, No. 1109, 25° C",0 mm
same,weekly increments of the diameter of colony,"Sporotrichum schenckii; 100 mcg/ml, week 1, No. 1109, 25° C",0 mm
same,weekly increments of the diameter of colony,"Sporotrichum schenckii; 100 mcg/ml, week 2, No. 1109, 25° C",0 mm
same,weekly increments of the diameter of colony,"Sporotrichum schenckii; 100 mcg/ml, week 3, No. 1109, 25° C",0 mm
same,MIC,Sporotrichum schenckii; [2],100 mg/L
same,MIC,"Sporotrichum schenckii; 504 h, up to the end of 3 weeks, Sabouraud dextrose agar, read-out: concentration inhibiting growth",100 mg/L
